Laboratory results taken from patent publication US20100099561A1, “HETEROBICYCLIC ALKYLTHIO-BRIDGED ISOXAZOLINES” (E.I. DU PONT DE NEMOURS AND COMPANY, priority 2008, published 2010).

How the values were obtained:
Type in all cases: in vivo
[1] = system: velvetleaf (Abutilon theophrasti); experiment: Test A postemergence, velvetleaf; conditions: 0 to 100 scale (0 no effect, 100 complete control)
Procedure, shortened: (§1)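 In a greenhouse, loam–sand potted species were treated with surfactant-formulated compound, preemergence via directed soil spray and postemergence at 2–10 cm height, one- to two-leaf stage. Response assessed visually at about ten days; 100 means complete control.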

[2] = system: morningglory (Ipomoea spp.); experiment: Test A postemergence, morningglory; conditions: 0 to 100 scale (0 no effect, 100 complete control)
Procedure, shortened: as §1

[3] = system: morningglory (Ipomoea coccinea); experiment: Test B preemergence, morningglory; conditions: scale 0 to 100
Procedure, shortened: (§2)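 After sowing in loam–sand, soil surfaces received the compound preemergence; greenhouse growth followed for 13–15 d. Control compared with untreated plants, scored 0–100.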

[4] = system: yellow nutsedge (Cyperus esculentus); experiment: Test B preemergence, yellow nutsedge; conditions: scale 0 to 100
Procedure, shortened: as §2

[5] = system: giant foxtail (Setaria faberii); experiment: Test B preemergence, giant foxtail; conditions: scale 0 to 100
Procedure, shortened: as §2

[6] = system: ducksalad (Heteranthera limosa); experiment: Test B flooded paddy test, ducksalad; conditions: Flood, scale 0 to 100
Procedure, shortened: (§3)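 Rice, umbrella sedge, ducksalad and barnyardgrass at 2-leaf stage; pots flooded to 3 cm, compounds applied into paddy water, depth held throughout. Greenhouse 13 to 15 days, then visual rating vs untreated controls on 0–100 scale (0 no effect, 100 complete control); dash means no test result.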

[7] = system: wheat (Triticum aestivum); experiment: Test A postemergence, wheat; conditions: 0 to 100 scale (0 no effect, 100 complete control)
Procedure, shortened: as §1

[8] = system: pigweed (Amaranthus retroflexus); experiment: Test A postemergence, pigweed; conditions: 0 to 100 scale (0 no effect, 100 complete control)
Procedure, shortened: as §1

[9] = system: sunflower (common oilseed sunflower, Helianthus annuus); experiment: Test B preemergence, sunflower; conditions: Preemergence, scale 0 to 100
Procedure, shortened: as §2

[10] = system: wheat (Triticum aestivum); experiment: Test B preemergence, wheat; conditions: Preemergence, scale 0 to 100
Procedure, shortened: as §2

[11] = system: corn (Zea mays); experiment: Test A postemergence, corn; conditions: 0 to 100 scale (0 no effect, 100 complete control)
Procedure, shortened: as §1

[12] = system: goosegrass (Eleusine indica); experiment: Test B preemergence, goosegrass; conditions: scale 0 to 100
Procedure, shortened: as §2

[13] = system: wild oat (Avena fatua); experiment: Test B preemergence, wild oat; conditions: scale 0 to 100
Procedure, shortened: as §2

[14] = system: blackgrass (Alopecurus myosuroides); experiment: Test B preemergence, blackgrass; conditions: scale 0 to 100
Procedure, shortened: as §2

[15] = system: rice (Oryza sativa); experiment: Test B flooded paddy test, rice; conditions: Flood, scale 0 to 100
Procedure, shortened: as §3

[16] = system: lambsquarters (Chenopodium album); experiment: Test B preemergence, lambsquarters; conditions: scale 0 to 100
Procedure, shortened: as §2

[17] = system: ragweed (common ragweed, Ambrosia elatior); experiment: Test B preemergence, ragweed; conditions: scale 0 to 100
Procedure, shortened: as §2

[18] = system: pigweed (Amaranthus retroflexus); experiment: Test B preemergence, pigweed; conditions: scale 0 to 100
Procedure, shortened: as §2

[19] = system: johnsongrass (Sorghum halepense); experiment: Test B preemergence, johnsongrass; conditions: scale 0 to 100
Procedure, shortened: as §2

## CC1(C)CC(S(=O)(=O)Cc2c(C(F)(F)F)nc3n(c2=O)CCS3)=NO1 [Compound 6]
[1]; 125 g ai/ha
  Plant response rating, Velvetleaf: 60
[1]; 500 g ai/ha
  Plant response rating, Velvetleaf: 80
[2]; 125 g ai/ha
  Plant response rating, Morningglory: 40
[2]; 500 g ai/ha
  Plant response rating, Morningglory: 50
[3]; 16 g ai/ha
  Plant response rating, Morningglory: 0
[3]; 31 g ai/ha
  Plant response rating, Morningglory: 0
[3]; 62 g ai/ha
  Plant response rating, Morningglory: 0
[3]; 125 g ai/ha
  Plant response rating, Morningglory: 0
[4]; 16 g ai/ha
  Plant response rating, Nutsedge, Yellow: 0
[4]; 31 g ai/ha
  Plant response rating, Nutsedge, Yellow: 0
[4]; 62 g ai/ha
  Plant response rating, Nutsedge, Yellow: 0
[4]; 125 g ai/ha
  Plant response rating, Nutsedge, Yellow: 45
[5]; 16 g ai/ha
  Plant response rating, Foxtail, Giant: 0
[5]; 31 g ai/ha
  Plant response rating, Foxtail, Giant: 95
[5]; 62 g ai/ha
  Plant response rating, Foxtail, Giant: 100
[5]; 125 g ai/ha
  Plant response rating, Foxtail, Giant: 100
[6]; 62 g ai/ha
  Plant response rating, Ducksalad: 40
[6]; 250 g ai/ha
  Plant response rating, Ducksalad: 65
[7]; 125 g ai/ha
  Plant response rating, Wheat: 20
[7]; 500 g ai/ha
  Plant response rating, Wheat: 30
[8]; 125 g ai/ha
  Plant response rating, Pigweed: 50
[8]; 500 g ai/ha
  Plant response rating, Pigweed: 90
[9]; 16 g ai/ha
  Plant response rating, Sunflower: 0
[9]; 31 g ai/ha
  Plant response rating, Sunflower: 0
[9]; 62 g ai/ha
  Plant response rating, Sunflower: 0
[9]; 125 g ai/ha
  Plant response rating, Sunflower: 0
[10]; 16 g ai/ha
  Plant response rating, Wheat: 0
[10]; 31 g ai/ha
  Plant response rating, Wheat: 0
[10]; 62 g ai/ha
  Plant response rating, Wheat: 0
[10]; 125 g ai/ha
  Plant response rating, Wheat: 0
[11]; 125 g ai/ha
  Plant response rating, Corn: 0
[11]; 500 g ai/ha
  Plant response rating, Corn: 0
[12]; 16 g ai/ha
  Plant response rating, Goosegrass: 100
[12]; 31 g ai/ha
  Plant response rating, Goosegrass: 100
[12]; 62 g ai/ha
  Plant response rating, Goosegrass: 100
[12]; 125 g ai/ha
  Plant response rating, Goosegrass: 100
[13]; 16 g ai/ha
  Plant response rating, Oat, Wild: 30
[13]; 31 g ai/ha
  Plant response rating, Oat, Wild: 45
[13]; 62 g ai/ha
  Plant response rating, Oat, Wild: 60
[13]; 125 g ai/ha
  Plant response rating, Oat, Wild: 60
[14]; 16 g ai/ha
  Plant response rating, Blackgrass: 50
[14]; 31 g ai/ha
  Plant response rating, Blackgrass: 80
[14]; 62 g ai/ha
  Plant response rating, Blackgrass: 95
[14]; 125 g ai/ha
  Plant response rating, Blackgrass: 95
[15]; 62 g ai/ha
  Plant response rating, Rice: 20
[15]; 250 g ai/ha
  Plant response rating, Rice: 20
[16]; 16 g ai/ha
  Plant response rating, Lambsquarters: 0
[16]; 31 g ai/ha
  Plant response rating, Lambsquarters: 20
[16]; 62 g ai/ha
  Plant response rating, Lambsquarters: 90
[16]; 125 g ai/ha
  Plant response rating, Lambsquarters: 95
[17]; 16 g ai/ha
  Plant response rating, Ragweed: 0
[17]; 31 g ai/ha
  Plant response rating, Ragweed: 0
[17]; 62 g ai/ha
  Plant response rating, Ragweed: 25
[17]; 125 g ai/ha
  Plant response rating, Ragweed: 35
[18]; 16 g ai/ha
  Plant response rating, Pigweed: 0
[18]; 31 g ai/ha
  Plant response rating, Pigweed: 50
[18]; 62 g ai/ha
  Plant response rating, Pigweed: 100
[18]; 125 g ai/ha
  Plant response rating, Pigweed: 100
[19]; 16 g ai/ha
  Plant response rating, Johnsongrass: 45
[19]; 31 g ai/ha
  Plant response rating, Johnsongrass: 70
[19]; 62 g ai/ha
  Plant response rating, Johnsongrass: 98
[19]; 125 g ai/ha
  Plant response rating, Johnsongrass: 100

## CC1(C)CC(S(=O)(=O)Cc2c(C(F)(F)F)nc3n(c2=O)CCCC3)=NO1 [Compound 8, 3-[[(4,5-dihydro-5,5-dimethyl-3-isoxazolyl)sulfonyl]methyl]-6,7,8,9-tetrahydro-2-(trifluoromethyl)-4H-pyrido[1,2-α]pyrimidin-4-one]
[1]; 125 g ai/ha
  Plant response rating, Velvetleaf: 50
[1]; 500 g ai/ha
  Plant response rating, Velvetleaf: 70
[2]; 125 g ai/ha
  Plant response rating, Morningglory: 60
[2]; 500 g ai/ha
  Plant response rating, Morningglory: 90
[3]; 16 g ai/ha
  Plant response rating, Morningglory: 0
[3]; 31 g ai/ha
  Plant response rating, Morningglory: 0
[3]; 62 g ai/ha
  Plant response rating, Morningglory: 20
[3]; 125 g ai/ha
  Plant response rating, Morningglory: 80
[4]; 16 g ai/ha
  Plant response rating, Nutsedge, Yellow: 0
[4]; 31 g ai/ha
  Plant response rating, Nutsedge, Yellow: 20
[4]; 62 g ai/ha
  Plant response rating, Nutsedge, Yellow: 60
[4]; 125 g ai/ha
  Plant response rating, Nutsedge, Yellow: 80
[5]; 16 g ai/ha
  Plant response rating, Foxtail, Giant: 80
[5]; 31 g ai/ha
  Plant response rating, Foxtail, Giant: 90
[5]; 62 g ai/ha
  Plant response rating, Foxtail, Giant: 98
[5]; 125 g ai/ha
  Plant response rating, Foxtail, Giant: 100
[6]; 62 g ai/ha
  Plant response rating, Ducksalad: 0
[6]; 250 g ai/ha
  Plant response rating, Ducksalad: 20
[7]; 125 g ai/ha
  Plant response rating, Wheat: 20
[7]; 500 g ai/ha
  Plant response rating, Wheat: 60
[8]; 125 g ai/ha
  Plant response rating, Pigweed: 10
[8]; 500 g ai/ha
  Plant response rating, Pigweed: 60
[9]; 16 g ai/ha
  Plant response rating, Sunflower: 0
[9]; 31 g ai/ha
  Plant response rating, Sunflower: 15
[9]; 62 g ai/ha
  Plant response rating, Sunflower: 40
[9]; 125 g ai/ha
  Plant response rating, Sunflower: 45
[10]; 16 g ai/ha
  Plant response rating, Wheat: 0
[10]; 31 g ai/ha
  Plant response rating, Wheat: 0
[10]; 62 g ai/ha
  Plant response rating, Wheat: 0
[10]; 125 g ai/ha
  Plant response rating, Wheat: 40
[11]; 125 g ai/ha
  Plant response rating, Corn: 0
[11]; 500 g ai/ha
  Plant response rating, Corn: 60
[12]; 16 g ai/ha
  Plant response rating, Goosegrass: 98
[12]; 31 g ai/ha
  Plant response rating, Goosegrass: 98
[12]; 62 g ai/ha
  Plant response rating, Goosegrass: 100
[12]; 125 g ai/ha
  Plant response rating, Goosegrass: 100
[13]; 16 g ai/ha
  Plant response rating, Oat, Wild: 0
[13]; 31 g ai/ha
  Plant response rating, Oat, Wild: 0
[13]; 62 g ai/ha
  Plant response rating, Oat, Wild: 35
[13]; 125 g ai/ha
  Plant response rating, Oat, Wild: 90
[14]; 16 g ai/ha
  Plant response rating, Blackgrass: 0
[14]; 31 g ai/ha
  Plant response rating, Blackgrass: 90
[14]; 62 g ai/ha
  Plant response rating, Blackgrass: 90
[14]; 125 g ai/ha
  Plant response rating, Blackgrass: 100
[15]; 62 g ai/ha
  Plant response rating, Rice: 0
[15]; 250 g ai/ha
  Plant response rating, Rice: 0
[16]; 16 g ai/ha
  Plant response rating, Lambsquarters: 55
[16]; 31 g ai/ha
  Plant response rating, Lambsquarters: 98
[16]; 62 g ai/ha
  Plant response rating, Lambsquarters: 100
[16]; 125 g ai/ha
  Plant response rating, Lambsquarters: 100
[17]; 16 g ai/ha
  Plant response rating, Ragweed: 0
[17]; 31 g ai/ha
  Plant response rating, Ragweed: 0
[17]; 62 g ai/ha
  Plant response rating, Ragweed: 25
[17]; 125 g ai/ha
  Plant response rating, Ragweed: 60
[18]; 16 g ai/ha
  Plant response rating, Pigweed: 0
[18]; 31 g ai/ha
  Plant response rating, Pigweed: 20
[18]; 62 g ai/ha
  Plant response rating, Pigweed: 95
[18]; 125 g ai/ha
  Plant response rating, Pigweed: 100
[19]; 16 g ai/ha
  Plant response rating, Johnsongrass: 75
[19]; 31 g ai/ha
  Plant response rating, Johnsongrass: 90
[19]; 62 g ai/ha
  Plant response rating, Johnsongrass: 100
[19]; 125 g ai/ha
  Plant response rating, Johnsongrass: 100
